According to PubChem BioAssay AID1963443 (Molecular Pharmacology Branch, DTP, NCI, 2024):

Test system: MDA-MB-231 complex spheroids, growth inhibition
Experiment: Anticancer human tumor MDA-MB-231 cell line growth inhibition [Asc];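 note: spheroids exposed to compounds for 7 days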
Conditions: for IC50: curve of first compound; for viability, T/C: stronger effect = lower value; active = viability on the fitted dose curve at most 10% of control; inactive = the rest
Summary of the method: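 Complex spheroids combining tumor cells with HUVEC endothelial cells and human MSCs, at 37 degrees C, 5% CO2; agents tested alone or combined, half-log dilutions from at or near clinical Cmax, or 10 microM if Cmax unknown.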

Cc1nc(N2CCC3(CC2)COC(C)C3N)c(CO)nc1Sc1ccnc(N)c1Cl (centres undefined) + CCN1C(C(=O)NC23CCC(C(=O)O)(CC2)CC3)C(c2cccc(Cl)c2F)C2(C(=O)Nc3cc(Cl)ccc32)C12CCCCC2
281 nM: IC50 (second compound 0.3 µM)
active: viability, T/C (second compound 0.03 µM, first compound 0.949 µM) 2.27% | viability, T/C (second compound 0.03 µM, first compound 3 µM) 0.7% | viability, T/C (second compound 0.0949 µM, first compound 0.949 µM) 2.11% | viability, T/C (second compound 0.0949 µM, first compound 3 µM) 0.82% | viability, T/C (second compound 0.3 µM, first compound 0.949 µM) 2.58% | viability, T/C (second compound 0.3 µM, first compound 3 µM) 0.88% | viability, T/C (second compound 0.949 µM, first compound 0.949 µM) 2.18% | viability, T/C (second compound 0.949 µM, first compound 3 µM) 0.9% | viability, T/C (second compound 3 µM, first compound 0.3 µM) 9.35% | viability, T/C (second compound 3 µM, first compound 0.949 µM) 1.26% | viability, T/C (second compound 3 µM, first compound 3 µM) 0.54%
157 nM: IC50 (second compound 3 µM)
inactive: viability, T/C (second compound 0.03 µM, first compound 0.00949 µM) 95.8% | viability, T/C (second compound 0.03 µM, first compound 0.03 µM) 95.4% | viability, T/C (second compound 0.03 µM, first compound 0.0949 µM) 96.7% | viability, T/C (second compound 0.03 µM, first compound 0.3 µM) 52.7% | viability, T/C (second compound 0.0949 µM, first compound 0.00949 µM) 95.7% | viability, T/C (second compound 0.0949 µM, first compound 0.03 µM) 95.7% | viability, T/C (second compound 0.0949 µM, first compound 0.0949 µM) 87.2% | viability, T/C (second compound 0.0949 µM, first compound 0.3 µM) 56% | viability, T/C (second compound 0.3 µM, first compound 0.00949 µM) 99.6% | viability, T/C (second compound 0.3 µM, first compound 0.03 µM) 99% | viability, T/C (second compound 0.3 µM, first compound 0.0949 µM) 98.3% | viability, T/C (second compound 0.3 µM, first compound 0.3 µM) 47.1% | viability, T/C (second compound 0.949 µM, first compound 0.00949 µM) 109% | viability, T/C (second compound 0.949 µM, first compound 0.03 µM) 108% | viability, T/C (second compound 0.949 µM, first compound 0.0949 µM) 107% | viability, T/C (second compound 0.949 µM, first compound 0.3 µM) 44.2% | viability, T/C (second compound 3 µM, first compound 0.00949 µM) 91.1% | viability, T/C (second compound 3 µM, first compound 0.03 µM) 89.2% | viability, T/C (second compound 3 µM, first compound 0.0949 µM) 81.8%
337 nM: IC50 (second compound 0.0949 µM)
270 nM: IC50 (second compound 0.949 µM)
319 nM: IC50 (second compound 0.03 µM)

C#Cc1c(F)ccc2cc(O)cc(-c3ncc4c(N5CC6CCC(C5)N6)nc(OCC56CCCN5CC(F)C6)nc4c3F)c12 (centres undefined) + CNC(C)C(=O)NC1CN(S(=O)(=O)c2cccc(S(=O)(=O)N3CCC4CCC(C(=O)NC(c5ccccc5)c5ccccc5)N4C(=O)C(NC(=O)C(C)NC)C3)c2)CCC2CCC(C(=O)NC(c3ccccc3)c3ccccc3)N2C1=O
< 31.6 nM: IC50 (second compound 0.00316 µM) | IC50 (second compound 0.01 µM) | IC50 (second compound 0.0316 µM) | IC50 (second compound 0.1 µM)
active: viability, T/C (second compound 0.00316 µM, first compound 0.0316 µM) 4.06% | viability, T/C (second compound 0.00316 µM, first compound 0.1 µM) 5.16% | viability, T/C (second compound 0.00316 µM, first compound 0.316 µM) 5.29% | viability, T/C (second compound 0.00316 µM, first compound 1 µM) 3.82% | viability, T/C (second compound 0.00316 µM, first compound 3.16 µM) 2.11% | viability, T/C (second compound 0.00316 µM, first compound 10 µM) 1.85% | viability, T/C (second compound 0.01 µM, first compound 0.0316 µM) 1.96% | viability, T/C (second compound 0.01 µM, first compound 0.1 µM) 2.54% | viability, T/C (second compound 0.01 µM, first compound 0.316 µM) 2.18% | viability, T/C (second compound 0.01 µM, first compound 1 µM) 3.28% | viability, T/C (second compound 0.01 µM, first compound 3.16 µM) 2.31% | viability, T/C (second compound 0.01 µM, first compound 10 µM) 1.91% | viability, T/C (second compound 0.0316 µM, first compound 0.0316 µM) 1.62% | viability, T/C (second compound 0.0316 µM, first compound 0.1 µM) 2.61% | viability, T/C (second compound 0.0316 µM, first compound 0.316 µM) 2.63% | viability, T/C (second compound 0.0316 µM, first compound 1 µM) 1.93% | viability, T/C (second compound 0.0316 µM, first compound 3.16 µM) 2.58% | viability, T/C (second compound 0.0316 µM, first compound 10 µM) 1.22% | viability, T/C (second compound 0.1 µM, first compound 0.0316 µM) 1.38% | viability, T/C (second compound 0.1 µM, first compound 0.1 µM) 1.67% | viability, T/C (second compound 0.1 µM, first compound 0.316 µM) 1.43% | viability, T/C (second compound 0.1 µM, first compound 1 µM) 1.74% | viability, T/C (second compound 0.1 µM, first compound 3.16 µM) 1.84% | viability, T/C (second compound 0.1 µM, first compound 10 µM) 2.09%
2970 nM: IC50 (second compound 1 µM)
3780 nM: IC50 (second compound 0.316 µM)
inactive: viability, T/C (second compound 0.316 µM, first compound 0.0316 µM) 112% | viability, T/C (second compound 0.316 µM, first compound 0.1 µM) 94.9% | viability, T/C (second compound 0.316 µM, first compound 0.316 µM) 96% | viability, T/C (second compound 0.316 µM, first compound 1 µM) 73% | viability, T/C (second compound 0.316 µM, first compound 3.16 µM) 51.6% | viability, T/C (second compound 0.316 µM, first compound 10 µM) 34.9% | viability, T/C (second compound 1 µM, first compound 0.0316 µM) 99.6% | viability, T/C (second compound 1 µM, first compound 0.1 µM) 110% | viability, T/C (second compound 1 µM, first compound 0.316 µM) 97.2% | viability, T/C (second compound 1 µM, first compound 1 µM) 68.8% | viability, T/C (second compound 1 µM, first compound 3.16 µM) 53.4% | viability, T/C (second compound 1 µM, first compound 10 µM) 38.7%

Cc1nc(N2CCC3(CC2)COC(C)C3N)c(CO)nc1Sc1ccnc(N)c1Cl (centres undefined) + CNC(C)C(=O)NC1CN(S(=O)(=O)c2cccc(S(=O)(=O)N3CCC4CCC(C(=O)NC(c5ccccc5)c5ccccc5)N4C(=O)C(NC(=O)C(C)NC)C3)c2)CCC2CCC(C(=O)NC(c3ccccc3)c3ccccc3)N2C1=O
inactive: viability, T/C (second compound 0.316 µM, first compound 0.00949 µM) 108% | viability, T/C (second compound 0.316 µM, first compound 0.03 µM) 101% | viability, T/C (second compound 0.316 µM, first compound 0.0949 µM) 108% | viability, T/C (second compound 0.316 µM, first compound 0.3 µM) 86.6% | viability, T/C (second compound 1 µM, first compound 0.00949 µM) 99.5% | viability, T/C (second compound 1 µM, first compound 0.03 µM) 113% | viability, T/C (second compound 1 µM, first compound 0.0949 µM) 99.9% | viability, T/C (second compound 1 µM, first compound 0.3 µM) 83.4%
< 9.49 nM: IC50 (second compound 0.00316 µM) | IC50 (second compound 0.01 µM) | IC50 (second compound 0.0316 µM) | IC50 (second compound 0.1 µM)
active: viability, T/C (second compound 0.00316 µM, first compound 0.00949 µM) 6.2% | viability, T/C (second compound 0.00316 µM, first compound 0.03 µM) 3.59% | viability, T/C (second compound 0.00316 µM, first compound 0.0949 µM) 3.91% | viability, T/C (second compound 0.00316 µM, first compound 0.3 µM) 2.35% | viability, T/C (second compound 0.00316 µM, first compound 0.949 µM) 1.9% | viability, T/C (second compound 0.00316 µM, first compound 3 µM) 0.75% | viability, T/C (second compound 0.01 µM, first compound 0.00949 µM) 3.06% | viability, T/C (second compound 0.01 µM, first compound 0.03 µM) 1.64% | viability, T/C (second compound 0.01 µM, first compound 0.0949 µM) 2.31% | viability, T/C (second compound 0.01 µM, first compound 0.3 µM) 2.09% | viability, T/C (second compound 0.01 µM, first compound 0.949 µM) 1.16% | viability, T/C (second compound 0.01 µM, first compound 3 µM) 1.06% | viability, T/C (second compound 0.0316 µM, first compound 0.00949 µM) 1.57% | viability, T/C (second compound 0.0316 µM, first compound 0.03 µM) 2.27% | viability, T/C (second compound 0.0316 µM, first compound 0.0949 µM) 1.35% | viability, T/C (second compound 0.0316 µM, first compound 0.3 µM) 1% | viability, T/C (second compound 0.0316 µM, first compound 0.949 µM) 2.18% | viability, T/C (second compound 0.0316 µM, first compound 3 µM) 1.27% | viability, T/C (second compound 0.1 µM, first compound 0.00949 µM) 1.75% | viability, T/C (second compound 0.1 µM, first compound 0.03 µM) 1.36% | viability, T/C (second compound 0.1 µM, first compound 0.0949 µM) 0.97% | viability, T/C (second compound 0.1 µM, first compound 0.3 µM) 0.62% | viability, T/C (second compound 0.1 µM, first compound 0.949 µM) 1.23% | viability, T/C (second compound 0.1 µM, first compound 3 µM) 1.82% | viability, T/C (second compound 0.316 µM, first compound 0.949 µM) 2.83% | viability, T/C (second compound 0.316 µM, first compound 3 µM) 0.94% | viability, T/C (second compound 1 µM, first compound 0.949 µM) 3.91% | viability, T/C (second compound 1 µM, first compound 3 µM) 0.93%
487 nM: IC50 (second compound 1 µM)
496 nM: IC50 (second compound 0.316 µM)
